Test results reported in PubChem BioAssay (NCI).
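Assay format: 96-well plates, 48-hour exposure. GI50 = concentration required for 50% inhibition of growth. Definition used: TGI = concentration required for complete inhibition of growth.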

How the values were obtained:
Test in all cases: DTP human tumour cell line panel, 48 h
SK-MEL-5 melanoma = system: SK-MEL-5 melanoma
NCI-H460 lung = system: NCI-H460 lung
NCI-H23 lung = system: NCI-H23 lung
SW-620 colon = system: SW-620 colon
LOX IMVI melanoma = system: LOX IMVI melanoma
SF-295 CNS = system: SF-295 CNS
HCT-15 colon = system: HCT-15 colon
HOP-92 NSCLC = system: HOP-92 NSCLC
NCI-H522 lung = system: NCI-H522 lung
MDA-MB-231 breast = system: MDA-MB-231 breast

Structure (SMILES)	TGI (SK-MEL-5 melanoma)	TGI (NCI-H460 lung)	TGI (NCI-H23 lung)	TGI (SW-620 colon)	TGI (LOX IMVI melanoma)	TGI (SF-295 CNS)	TGI (HCT-15 colon)	TGI (HOP-92 NSCLC)	TGI (NCI-H522 lung)	GI50 (SK-MEL-5 melanoma)	GI50 (MDA-MB-231 breast)	TGI (MDA-MB-231 breast)	GI50 (NCI-H460 lung)	GI50 (SW-620 colon)	GI50 (LOX IMVI melanoma)	GI50 (SF-295 CNS)	GI50 (HCT-15 colon)	GI50 (NCI-H522 lung)	GI50 (NCI-H23 lung)	GI50 (HOP-92 NSCLC)
COC(CN1C=C(Sc2ccccc2)CC1)OC	34.7 µM	> 100 µM	69.7 µM	47.9 µM	56.3 µM	71 µM	> 100 µM	86.5 µM												
C/C=C(\C)c1cc(O)c(C)c2c1Oc1cc(O)c(Cl)c(C)c1C(=O)O2	26.9 µM	39.7 µM	38.6 µM	37.4 µM	31.6 µM	32.4 µM			51.3 µM											
c1ccc(P(=Nc2ccccc2N=P(c2ccccc2)(c2ccccc2)c2ccccc2)(c2ccccc2)c2ccccc2)cc1	1.95 µM	11 µM	2.25 µM	14.3 µM	13.9 µM	10.7 µM		0.573 µM	2.24 µM											
COc1ccc(C(Cl)=C(c2ccc(OCCN(C)C)cc2)c2ccc(OCCN(C)C)cc2)cc1	3.52 µM	3.32 µM	3.98 µM	2.75 µM		3.24 µM	3.58 µM	6.1 µM	3.01 µM											
CN(C)c1ccc(/C=C2\C=Cc3ccccc32)cc1	> 100 µM	> 100 µM	> 100 µM	> 100 µM	> 100 µM	> 100 µM	> 100 µM	> 100 µM	52.3 µM											
Cc1ccc(S(=O)OC2C3CC4CC(C3)CC2C4)cc1 (stereo unspecified)	> 100 µM	> 100 µM	> 100 µM	> 100 µM	> 100 µM	> 100 µM	> 100 µM	> 100 µM	> 100 µM											
Cc1cc2c(c(C(=O)O)c1C)-c1cccc(F)c1C2=O	> 100 µM	> 100 µM	> 100 µM	> 100 µM	> 100 µM	> 100 µM	> 100 µM		> 100 µM											
Cn1c2ccccc2n2c(=O)c3c(c(C#N)c12)CCCC3	> 100 µM	> 100 µM	> 100 µM	> 100 µM	> 100 µM	> 100 µM	> 100 µM													
C[C@@H]1O[C@@H](OC[C@H]2O[C@@H](OCCc3ccc(O)c(O)c3)[C@H](O)[C@@H](O)[C@@H]2OC(=O)/C=C/c2ccc(O)c(O)c2)[C@H](O)[C@H](O)[C@H]1O	> 100 µM	> 100 µM		> 100 µM	> 100 µM	> 100 µM	> 100 µM		> 100 µM	> 100 µM	> 100 µM	> 100 µM	> 100 µM	> 100 µM	> 100 µM	> 100 µM	> 100 µM	> 100 µM		
COc1ccc2c(c1OC)C(=O)OC2C1c2c(c([N+](=O)[O-])c3c(c2OC)OCO3)CCN1C (stereo unspecified)	> 100 µM	> 100 µM	> 100 µM	> 100 µM	> 100 µM	> 100 µM	> 100 µM		> 100 µM	> 100 µM	> 100 µM	> 100 µM	> 100 µM	> 100 µM	> 100 µM	> 100 µM	> 100 µM	> 100 µM	> 100 µM	
Cc1nc2ccccc2c(/C=C/c2ccc(Br)cc2)c1C(=O)/C=C/c1ccccc1	3.11 µM		3.81 µM	4.45 µM	3.01 µM		3.71 µM		3.04 µM	1.72 µM	1.84 µM	3.94 µM		1.54 µM	1.65 µM		1.31 µM	1.42 µM	1.66 µM	
CCCCCCCCCCCCCP(=O)(O)NCC(N)=O	> 100 µM	> 100 µM	> 100 µM	> 100 µM	> 100 µM	> 100 µM	> 100 µM	> 100 µM	86.2 µM											
Fc1cccc(C2SCc3nc4ccccc4n32)c1F (stereo unspecified)	53.2 µM	> 100 µM	> 100 µM	> 100 µM	> 100 µM	> 100 µM	> 100 µM	85 µM	> 100 µM											
O=P1(Oc2ccccc2)C(c2ccccc2)C(c2ccccc2)=NN1c1ccccc1 (stereo unspecified)		60.9 µM	51.9 µM	53.1 µM	31.6 µM	89.5 µM	44.7 µM		36.4 µM											
CC(C)c1c2[nH]c3ccccc3c2c(C(C)C)c2[nH]c3ccccc3c12	> 100 µM	> 100 µM	> 100 µM	> 100 µM	> 100 µM	> 100 µM	> 100 µM	> 100 µM	> 100 µM											
CCO/C=C1\N=C(c2ccccc2Br)OC1=O		> 100 µM	> 100 µM	> 100 µM	> 100 µM	> 100 µM	> 100 µM	> 100 µM	> 100 µM											

Structure (SMILES)	TGI (SK-MEL-5 melanoma)	TGI (NCI-H460 lung)	TGI (NCI-H23 lung)	TGI (SW-620 colon)	TGI (LOX IMVI melanoma)	TGI (SF-295 CNS)	TGI (HCT-15 colon)	TGI (HOP-92 NSCLC)	TGI (NCI-H522 lung)	GI50 (SK-MEL-5 melanoma)	GI50 (MDA-MB-231 breast)	TGI (MDA-MB-231 breast)	GI50 (NCI-H460 lung)	GI50 (SW-620 colon)	GI50 (LOX IMVI melanoma)	GI50 (SF-295 CNS)	GI50 (HCT-15 colon)	GI50 (NCI-H522 lung)	GI50 (NCI-H23 lung)	GI50 (HOP-92 NSCLC)
COc1cc(/C=C/[N+](=O)[O-])cc(Br)c1OC	4.93 µM	11.4 µM	5.28 µM	3.37 µM	2.18 µM	9.88 µM	8.98 µM		2.83 µM	2.13 µM	3.03 µM	8.05 µM	3.48 µM	1.57 µM	0.899 µM	2.64 µM	2.68 µM	0.816 µM	2.06 µM	
CN(C)CCC(/C=C/c1ccccc1)=N\Nc1ccc(Cl)cc1Cl	26.2 µM	28.1 µM	31.4 µM	27.9 µM		30.2 µM	24.2 µM		30.6 µM											
Cc1cc(N(CCC#N)CCC#N)ccc1/C=C1/N=C(c2ccccc2)N(N)C1=O	> 100 µM		> 100 µM	> 100 µM	> 100 µM	> 100 µM	> 100 µM	99.9 µM	92.1 µM											
CC1(C)C2CCC13CS(=O)(=O)N1O[C@]13C(=O)O2 (stereo partly specified)		> 100 µM	> 100 µM	> 100 µM	> 100 µM	> 100 µM	> 100 µM	> 100 µM	> 100 µM											
COc1cc2nc(NCCCCCNC(=O)c3ccco3)nc(N)c2cc1OC	34.4 µM	> 100 µM	> 100 µM	58.1 µM		> 100 µM	> 100 µM	42 µM	96.4 µM											
CC1CN1c1c(C(=O)/C=C/c2ccccc2)c(-c2ccccc2)nn(C)c1=O (stereo unspecified)	29.4 µM	41.2 µM	31.8 µM	39.8 µM	31.1 µM	46.8 µM	27.4 µM	46.7 µM	26.2 µM											
CN1COc2c(n(C)c(=O)[nH]c2=O)C1	> 100 µM	> 100 µM	> 100 µM	> 100 µM		> 100 µM	> 100 µM	> 100 µM	> 100 µM											
CCOC1=C2N=C(Cc3ccccc3F)N=C2C(=O)c2ccccc21		> 100 µM	> 100 µM	> 100 µM		> 100 µM	> 100 µM	> 100 µM	> 100 µM											
CNS(=O)(=O)NNS(=O)(=O)c1ccc(Cl)cc1	> 100 µM	> 100 µM	> 100 µM	> 100 µM		> 100 µM		> 100 µM	> 100 µM											
COc1ccc(C=O)c(NC(=O)C(C)C)c1	> 10 µM	> 100 µM	> 100 µM	> 10 µM	> 100 µM	> 100 µM	> 100 µM	53.5 µM	46.3 µM											
CCCCCCN(N)C(=O)CC#N	> 100 µM	> 100 µM	> 100 µM	> 100 µM	> 100 µM		> 100 µM	> 100 µM	> 100 µM											
N#Cc1ccc(N=Cc2c([O-])ccc3ccccc23)cc1.[C-]#[O+].[C-]#[O+].[Ir]	26.2 µM		24.4 µM	4.09 µM	22.4 µM	35.7 µM		10.3 µM	2.45 µM	13.4 µM				1.93 µM	9.88 µM	16.9 µM		1.13 µM	10.5 µM	3.23 µM
CCOC(=O)C(=O)Nc1cc(Cl)ccc1Cl	> 100 µM	> 100 µM	> 100 µM	> 100 µM		> 100 µM	> 100 µM	> 100 µM	> 100 µM											
O=C([CH-]C(=O)c1ccccc1)c1ccccc1.O=C([CH-]C(=O)c1ccccc1)c1ccccc1.[OH-].[OH-].[Ti+4]	> 100 µM	> 100 µM		> 100 µM		> 100 µM	> 100 µM		69.7 µM	31.2 µM			60.3 µM	49 µM		30.4 µM	> 100 µM	24.2 µM		
O=C(NC1CCCC1=O)c1ccccc1 (stereo unspecified)	> 100 µM	> 100 µM	> 100 µM	> 100 µM		> 100 µM		> 100 µM												
C=C1CCC2[C@@H](CCC3[C@]2(C)CCC[C@]3(C)C(=O)OC)[C@@H]1CC=O (stereo partly specified)	32.5 µM	41.3 µM	66.5 µM	37.6 µM		> 100 µM	81.2 µM	48.9 µM	> 100 µM							50.2 µM		> 100 µM		
